In PMC3579927, “Identification of a Small Molecule That Selectively Inhibits Mouse PC2 over Mouse PC1/3: A Computational and Experimental Study” (PLoS ONE, 2013):
Each block holds one compound with its values, some of them ahead of it.

Tests used:
Format in all cases: biochemical
[1] = target: T1, prohormone convertase 1/3 (PC1/3) (Mus musculus, UniProt P63239); assay: enzyme assay, stimulation of activity at […]
T1 construct: gene Pcsk1
T1 sequence (P63239 111-753): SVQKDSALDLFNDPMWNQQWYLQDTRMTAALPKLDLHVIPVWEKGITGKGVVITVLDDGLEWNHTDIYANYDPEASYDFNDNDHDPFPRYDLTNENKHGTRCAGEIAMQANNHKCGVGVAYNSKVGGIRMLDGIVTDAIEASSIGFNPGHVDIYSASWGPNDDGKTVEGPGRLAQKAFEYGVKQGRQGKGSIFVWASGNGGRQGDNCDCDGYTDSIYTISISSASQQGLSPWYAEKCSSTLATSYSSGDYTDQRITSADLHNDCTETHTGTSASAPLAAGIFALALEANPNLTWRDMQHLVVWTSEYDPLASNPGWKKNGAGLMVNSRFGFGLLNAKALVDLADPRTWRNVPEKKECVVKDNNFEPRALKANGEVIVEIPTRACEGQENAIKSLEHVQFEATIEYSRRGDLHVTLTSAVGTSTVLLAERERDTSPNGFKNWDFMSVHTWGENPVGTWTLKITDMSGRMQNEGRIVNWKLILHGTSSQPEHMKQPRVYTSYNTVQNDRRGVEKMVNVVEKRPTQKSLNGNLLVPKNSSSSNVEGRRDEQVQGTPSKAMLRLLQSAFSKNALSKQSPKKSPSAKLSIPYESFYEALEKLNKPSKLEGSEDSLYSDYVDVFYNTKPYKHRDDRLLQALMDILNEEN

[2] = target: T2, prohormone convertase 2 (PC2) (Mus musculus, UniProt P21661); assay: fluorogenic enzyme assay with pERTKR-amc, […] inhibition at […] and […] at […]
T2 construct: gene Pcsk2; Recombinant PC2
T2 sequence (P21661 109-637): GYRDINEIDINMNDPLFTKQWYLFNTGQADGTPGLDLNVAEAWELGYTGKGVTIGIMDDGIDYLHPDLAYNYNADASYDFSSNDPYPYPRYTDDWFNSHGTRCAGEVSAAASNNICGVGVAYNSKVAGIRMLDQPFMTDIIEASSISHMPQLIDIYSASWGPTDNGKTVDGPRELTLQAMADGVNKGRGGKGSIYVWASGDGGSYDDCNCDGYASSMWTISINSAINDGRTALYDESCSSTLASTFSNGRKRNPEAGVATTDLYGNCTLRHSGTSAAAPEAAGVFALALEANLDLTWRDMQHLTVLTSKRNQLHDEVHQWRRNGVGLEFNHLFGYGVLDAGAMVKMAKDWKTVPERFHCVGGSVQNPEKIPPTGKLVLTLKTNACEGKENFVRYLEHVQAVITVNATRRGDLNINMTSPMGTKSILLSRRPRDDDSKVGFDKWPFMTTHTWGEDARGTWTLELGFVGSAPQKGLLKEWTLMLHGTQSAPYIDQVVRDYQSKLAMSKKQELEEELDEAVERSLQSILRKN

[3] = target: T2, prohormone convertase 2 (PC2); assay: fluorogenic enzyme assay, stimulation of activity at […]; details: read-out: % inhibition at 50 μM (negative = stimulation)
[4] = target: T2, prohormone convertase 2 (PC2); assay: fluorogenic enzyme assay with pERTKR-amc, IC50 and inhibition kinetics

- inhibition at 50 µM [1]: -41%
- inhibition at 50 µM [2]: 71%
Structure (SMILES): CCOC(=O)C(=CN/N=c1/cc[nH]c2cc(Cl)ccc12)C(=O)OCC [BTB03195]

- inhibition at 50 µM [3]: -60%
Structure (SMILES): NCCCN=c1ccc2c3c1c(O)c1c(O)ccc(=O)c1c3[nH]n2CCNCCO [JFD02062]

- Ki [4]: 690 ± 80 nM
Structure (SMILES): OC[C@@H](O)[C@H](O)[C@H](O)[C@@H](O)[C@@H]1NCCS1 [RJC00847]
